{"source": "patent US8975259B2", "about": "“Compositions and methods for inhibiting G protein signaling” (University of Rochester, priority 2007, dated 2015)", "key": {"[1]": {"test_system": "isoproterenol-induced heart failure in mice", "assay": "Isoproterenol mini-osmotic pump acute model of heart failure", "format": "in vivo, mouse", "conditions": "result in words", "method": "Conscious echocardiography was performed on animals prior to sacrifice. % FS is a measure of cardiac contractility derived from end-diastolic and end-systolic diameters. […] Heart weight to body weight ratio (HW:BW) was assessed upon sacrifice of the animal. (n=7-8 per condition)\nImmunoblot for GRK2 of equal amounts of total protein isolated from hearts of adult C57/B16 male mice following 1 week of either vehicle or Iso (30 mg/kg/day) delivered by miniosmotic pumps (Veh, . . . or Iso, . . . , respectively) and concurrent daily vehicle or M119 (100 mg/kg) daily injections ( . . . , Veh, or . . . , Cmpd, respectively).\nBased on the positive cardiomyocyte data, the cardiac effects of M119 were tested in vivo. The NCI compound database and chemical library was originally assembled to investigate these compounds utilizing both a yeast high-throughput screening assay as well as in vivo compound delivery to mice for 1-2 weeks. […] Wild type mice were implanted with mini-osmotic pumps filled with either vehicle or the non-selective β-AR agonist isoproterenol. These pumps release a constant fluid volume, and 30 mg/kg/day of isoproterenol (Iso) has been used to attain pathologic cardiac hypertrophy and dysfunction in one week Immediately following mini-osmotic pump implantation of vehicle or Iso (30 mg/kg/day), mice from each group were injected intraperitoneal (IP) once daily with equal volumes of either vehicle or a moderate dose of M119 (100 mg/kg) for seven days. […] The Iso pumped animals indeed suffered a decrease of cardiac function coupled with pathologic hypertrophy."}, "[2]": {"test_system": "GRK2 membrane recruitment in adult mouse cardiomyocytes", "assay": "β-AR-mediated GRK2 membrane recruitment in isolated adult mouse cardiomyocytes", "format": "cell-based", "conditions": "result in words", "method": "Thus, it was tested whether M119 could block GRK2 recruitment to membrane-bound Gβγ subunits upon agonist stimulation of β-AR in cardiomyocytes, similar to what had been observed in vitro with the peptide inhibitors described above. Indeed M119 reduced β-AR-mediated recruitment of GRK2 to membranes of isolated adult mouse cardiomyocytes, with a mild reduction of membrane associated GRK2 at baseline."}, "[3]": {"test_system": "cAMP generation in adult mouse cardiomyocytes", "assay": "cAMP generation in isolated adult mouse cardiomyocytes", "format": "cell-based", "conditions": "10 μM M119 5 min pre-treatment, 100 nM isoproterenol 15 min; result in words", "method": "Isolated cardiomyocytes were treated with vehicle (V) or 100 nM isoproterenol (I) for 15 minutes in the presence or absence of a 5 minute pre-treatment with 10 μM M119 (M). Forskolin treatment, which directly activates adenylyl cyclase, was used as a control."}, "[4]": {"test_system": "human δ opioid receptor (hDOR-CHO cells)", "assay": "Total inositol phosphate assay in hDOR-CHO cells", "format": "cell-based", "conditions": "DPDPE, Deltorphin II, M119 10 μM; naltrindole 100 μM; result in words", "method": "Chinese hamster ovary (CHO) cells stably expressing either the human κ (hKOR-CHO), δ (hDOR-CHO)(L. Toll, Stanford Research Institute, Palo Alto, Calif.) or μ (hMOR-CHO)(G. Uhl, National Institute on Drug Abuse, Baltimore, Md.) opioid receptor were used in the experiments. Cells in 6-well plates were labeled by adding 4 μCi of [^3H]inositol for 24 hr in inositol-free F-10 media, without serum. After labeling, LiCl was added directly to the labeling media at a final concentration of 10 mM. Ligands or peptides were added at the same time. The final volume of each well was 1 mL. The plates were put back in to the incubator at 37° C. for 30 min after which time the medium was aspirated and the plates were washed twice with 1× PBS. Ice-cold 50 mM formic acid, 1 mL, was added to the plates which were placed in the cold room at 4° C. for 30 min. After the incubation, the contents of the plates were applied to Dowex AG1-X8 columns and allowed to flow all the way through the column. The columns were washed, twice each, with 50 and 100 mM formic acid, for a total of four washes, followed by elution of the IP-containing fraction with 3 mL of 1.2 M ammonium formate/0.1 M formic acid. The eluted fraction was mixed with Scintisafe scintillation fluid, for high salt, and counted. The data are represented as the fold increase over control in total inositol phospates. All experiments were repeated three times and performed in duplicate. Control cells for each experiment were labeled with [^3H]inositol and LiCl, in the same manner as the treatment groups."}, "Gβ1γ2": {"biological_target": "Gβ1γ2 (UniProt P54311+P63212)", "sequence (P54311 whole entry)": "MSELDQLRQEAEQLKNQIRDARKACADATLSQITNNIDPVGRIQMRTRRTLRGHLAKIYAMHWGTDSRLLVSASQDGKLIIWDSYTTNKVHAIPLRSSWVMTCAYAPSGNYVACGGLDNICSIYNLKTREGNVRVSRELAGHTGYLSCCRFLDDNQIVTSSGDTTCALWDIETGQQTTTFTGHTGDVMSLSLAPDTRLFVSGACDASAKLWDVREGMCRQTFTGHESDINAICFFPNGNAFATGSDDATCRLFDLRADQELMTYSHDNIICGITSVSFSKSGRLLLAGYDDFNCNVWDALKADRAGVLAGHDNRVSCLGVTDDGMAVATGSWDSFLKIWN", "sequence (P63212 2-68 limits assumed)": "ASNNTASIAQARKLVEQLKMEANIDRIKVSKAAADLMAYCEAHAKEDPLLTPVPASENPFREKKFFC", "set-up": "made in house; host or cells: Sf9 insect cells (baculovirus; co-expressed with BirA and (His)6-Gαi1, from which βγ was eluted)", "conditions": "Table 20, competition ELISA for SIGK binding; data from Bonacci et al. (2006); cited from earlier work"}}}
{"smiles": "O=C(O)C1CCCCC1c1c2ccc(=O)c(O)c-2oc2c(O)c(O)ccc12", "note": "(centres unmarked) [Compound M119, cyclohexanecarboxylic acid, 2-(4,5,6-trihydroxy-3-oxo-3H-xanthen-9-yl)-(9cl)]", "values": [{"measurement": "effect on interstitial cardiac fibrosis", "setting": "[1]; Iso 30 mg/kg/day pump, M119 100 mg/kg IP daily, seven days", "value": "reduction in interstitial cardiac fibrosis"}, {"measurement": "effect on cardiac function and morphology in Iso pumped animals", "setting": "[1]; Iso 30 mg/kg/day pump, M119 100 mg/kg IP once daily, seven days", "value": "near normalization of cardiac function and morphology"}, {"measurement": "effect on GRK2 expression in the Iso HF model", "setting": "[1]; M119 100 mg/kg IP daily", "value": "nearly normalized"}, {"measurement": "effect of compound alone on cardiac function or morphology", "setting": "[1]; vehicle pump, M119 100 mg/kg IP daily", "value": "no effect"}, {"measurement": "effect on β-AR-mediated recruitment of GRK2 to membranes", "setting": "[2]", "value": "reduced"}, {"measurement": "effect on cAMP generation at baseline and with isoproterenol", "setting": "[3]", "value": "enhanced"}, {"measurement": "effect on IP generation over control treated cells", "setting": "[4]", "value": "no significant effect"}]}
{"smiles": "O=C(O)C1CCCCC1c1c2ccc(=O)cc-2oc2cc(O)ccc12", "note": "(centres unmarked) [Compound M119B]", "values": [{"measurement": "IC50", "setting": "Gβ1γ2", "value": "> 300", "unit": "µM"}]}
